Values quoted from earlier work as cited in patent US7326706B2, “Pyrazine modulators of cannabinoid receptors” (Bristol-Myers Squibb Company, priority 2003, dated 2008).

What was measured:
[1] = chronic administration for two weeks
[2] = 16 week trial period

| Structure (SMILES) | body weight [1] | body weight in human subjects [2] |
| --- | --- | --- |
| Cc1c(C(=O)NN2CCCCC2)nn(-c2ccc(Cl)cc2Cl)c1-c1ccc(I)cc1 [AM-251] | substantial body weight reduction | – |
| Cc1c(C(=O)NN2CCCCC2)nn(-c2ccc(Cl)cc2Cl)c1-c1ccc(Cl)cc1 [SR-141716] | – | dose-dependently reduced body weight |
